Tests used:
[1] = target: T1, Fructose-1,6-bisphosphatase 1 (Homo sapiens, UniProt P09467); test: Inhibition of human liver FBPase 1
T1 sequence (P09467 whole entry): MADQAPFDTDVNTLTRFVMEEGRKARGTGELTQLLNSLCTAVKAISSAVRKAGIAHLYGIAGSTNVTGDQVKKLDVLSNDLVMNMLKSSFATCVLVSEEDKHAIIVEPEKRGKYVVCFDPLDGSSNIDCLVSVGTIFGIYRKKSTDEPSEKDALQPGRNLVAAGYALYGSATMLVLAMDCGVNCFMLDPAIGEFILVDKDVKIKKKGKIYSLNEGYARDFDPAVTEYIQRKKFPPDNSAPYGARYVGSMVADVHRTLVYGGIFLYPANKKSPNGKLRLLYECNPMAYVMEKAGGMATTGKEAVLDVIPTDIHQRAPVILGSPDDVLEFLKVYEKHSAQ

[2] = target: T2, Fructose-1,6-bisphosphatase 1 (Rattus norvegicus, UniProt P19112); test: Inhibition of rat liver FBPase 1
T2 sequence (P19112 whole entry): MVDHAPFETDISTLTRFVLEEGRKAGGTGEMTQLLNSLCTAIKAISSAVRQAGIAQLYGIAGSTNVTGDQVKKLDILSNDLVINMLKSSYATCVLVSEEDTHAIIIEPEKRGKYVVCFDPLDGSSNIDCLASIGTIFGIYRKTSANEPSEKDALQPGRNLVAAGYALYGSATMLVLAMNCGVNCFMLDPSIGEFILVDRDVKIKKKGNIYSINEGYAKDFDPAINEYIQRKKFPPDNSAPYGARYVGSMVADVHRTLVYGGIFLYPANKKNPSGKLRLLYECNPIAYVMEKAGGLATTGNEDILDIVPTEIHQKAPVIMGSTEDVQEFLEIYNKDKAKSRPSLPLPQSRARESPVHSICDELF

Hepatocyte = test: cells; conditions: Rattus norvegicus
Description: Inhibition of glucose production in rat primary hepatocytes

Rattus norvegicus = test: Reduction of blood glucose level in 18 hrs fasted normal Sprague-Dawley rat at 10 mg/kg, iv after 1 hr interval; type: functional; parameters: scale not given: the % may be the effect or the level left
[3] = Oral bioavailability in 18 hrs fasted normal Sprague-Dawley rat up to 100 mg/kg by urinary excretion assay; type: ADME, organism-based; conditions: urine

SMILES | IC50 [1] [nM] | IC50 [2] [nM] | IC50 (Hepatocyte) [nM] | Activity (Rattus norvegicus) [%] | bioavailability [3] [%]
Nc1cccc2c1nc(-c1ccc(P(=O)(O)O)o1)n2CC1CCC1 | 800 | 2000 | 40000 | – | –
Nc1cccc2c1nc(-c1ccc(P(=O)(O)O)o1)n2Cc1ccccc1 | 5000 | 20000 | 100000 | – | –
Nc1cccc2c1nc(-c1ccc(P(=O)(O)O)o1)n2CC1CCCC1 | 1500 | 2000 | 45000 | – | –
CCCn1c(-c2ccc(P(=O)(O)O)o2)nc2c(N)cccc21 | 1100 | 2000 | 37000 | – | –
C=Cc1cc(F)c(N)c2nc(-c3ccc(P(=O)(O)O)o3)n(CC(C)C)c12 | 280 | 900 | 25000 | – | –
Nc1cccc2c1nc(-c1ccc(P(=O)(O)O)o1)n2Cc1ccoc1 | 4200 | 20000 | 100000 | – | –
CC(C)CCCc1cc(F)c(N)c2nc(-c3ccc(P(=O)(O)O)o3)n(CC(C)C)c12 | 100 | 2100 | 23000 | – | –
CCC(CC)n1c(-c2ccc(P(=O)(O)O)o2)nc2c(N)c(F)ccc21 | 850 | 2500 | 9500 | – | –
CC(C)Cn1c(-c2ccc(P(=O)(O)O)o2)nc2c(N)c(F)cc(CCCCCl)c21 | 70 | 500 | 3100 | 47 | –
Nc1c(F)ccc2c1nc(-c1ccc(P(=O)(O)O)o1)n2CC1CC1 | – | 2180 | 3300 | – | –
Nc1cccc2c1nc(-c1ccc(P(=O)(O)O)o1)n2CC1CC1 | 800 | 20000 | 100000 | – | –
CC(C)Cn1c(-c2ccc(P(=O)(O)O)o2)nc2c(N)c(O)ccc21 | 500 | 20000 | 25000 | – | –
CCc1ccc2c(nc(-c3ccc(P(=O)(O)O)o3)n2CC(C)C)c1N | 2500 | 20000 | 50000 | – | –
Nc1cccc2c1nc(-c1ccc(P(=O)(O)O)o1)n2Cc1ccc(C(F)(F)F)cc1 | 7000 | 20000 | 100000 | – | –
CC(C)Cn1c(-c2ccc(P(=O)(O)O)o2)nc2c(N)ccc(Br)c21 | 400 | 2000 | 14000 | – | –
CCOC(=O)OCOP(=O)(OCOC(=O)OCC)c1ccc(-c2nc3c(N)c(F)cc(CC)c3n2CC(C)C)o1 | – | – | – | – | 2
CCc1cc(F)c(N)c2nc(-c3ccc(P(=O)(Oc4ccc(C(=O)OC(C)(C)C)cc4)Oc4ccc(C(=O)OC(C)(C)C)cc4)o3)n(CC(C)C)c12 | – | – | – | – | 2
Nc1cccc2c1nc(-c1ccc(P(=O)(O)O)o1)n2CC12CCC(CC1)C2 | 1000 | 2000 | 25000 | – | –
CC(C)Cn1c(-c2ccc(P(=O)(O)O)o2)nc2c(N)c(F)cc(CCCO)c21 | 80 | 450 | 1000 | 63 | –
CC(C)Cn1c(-c2ccc(P(=O)(O)O)o2)nc2c(N)c(F)cc(Br)c21 | 130 | 2090 | 5000 | – | –
CCc1cc(F)c(N)c2nc(-c3ccc(P(=O)(OCC(=O)OC(C)(C)C)OCC(=O)OC(C)(C)C)o3)n(CC(C)C)c12 | – | – | – | – | 2
CC(C)Cn1c(-c2ccc(P(=O)(O)O)o2)nc2c(N)c(F)c(Cl)cc21 | 225 | 2000 | 16000 | – | –
CC(C)Cn1c(-c2ccc(P(=O)(O)O)o2)nc2c(N)cccc21 | 1500 | 4000 | 20000 | – | –
CC(C)Cn1c(-c2ccc(P(=O)(O)O)o2)nc2c(N)c(F)cc(-c3ccc(F)cc3)c21 | 180 | 1300 | 21000 | 0 | –
CC(C)Cn1c(-c2ccc(P(=O)(O)O)o2)nc2c(N)c(F)cc(CCCN(C)C)c21 | 55 | 400 | – | 44 | –
CC(C)Cn1c(-c2ccc(P(=O)(O)O)o2)nc2c(N)c(F)cc(-c3ccc(Cl)cc3)c21 | 90 | 2000 | > 25000 | – | –

SMILES | IC50 [1] [nM] | IC50 [2] [nM] | IC50 (Hepatocyte) [nM] | Activity (Rattus norvegicus) [%] | bioavailability [3] [%]
Nc1cccc2c1nc(-c1ccc(P(=O)(O)O)o1)n2Cc1cccc(O)c1 | 1850 | 20000 | 100000 | – | –
CCC(CC)Cn1c(-c2ccc(P(=O)(O)O)o2)nc2c(N)c(F)ccc21 | 150 | 850 | 5000 | – | –
COc1ccc2c(nc(-c3ccc(P(=O)(O)O)o3)n2CC(C)C)c1N | 700 | 2000 | 16000 | – | –
CC(C)(C)c1ccc(Cn2c(-c3ccc(P(=O)(O)O)o3)nc3c(N)cccc32)cc1 | 9500 | 20000 | 100000 | – | –
CC(C)Cn1c(-c2ccc(P(=O)(O)O)o2)nc2c(N)ccc(Cl)c21 | 900 | 2000 | 24000 | – | –
CCCc1ccc2c(nc(-c3ccc(P(=O)(O)O)o3)n2CC(C)C)c1N | 3000 | 20000 | 50000 | – | –
CC(C)Cn1c(-c2ccc(P(=O)(O)O)o2)nc2c(N)c(F)cc(C3CC3)c21 | 60 | 350 | 1500 | 64 | –
Nc1cccc2c1nc(-c1ccc(P(=O)(O)O)o1)n2Cc1ccsc1 | 4000 | 20000 | 100000 | – | –
CC(C)Cn1c(-c2ccc(P(=O)(O)O)o2)nc2c(N)c(Br)ccc21 | 400 | – | 14000 | – | –
CC(C)Cn1c(-c2ccc(P(=O)(O)O)o2)nc2c(N)c(F)cc(-c3ccccc3)c21 | 90 | 900 | 18000 | 0 | –
CCCc1cc(F)c(N)c2nc(-c3ccc(P(=O)(O)O)o3)n(CC(C)C)c12 | 100 | 650 | 5500 | 60 | –
CCn1c(-c2ccc(P(=O)(O)O)o2)nc2c(N)cccc21 | 2250 | 40000 | – | – | –
CC(C)Cn1c(-c2ccc(P(=O)(O)O)o2)nc2c(N)c(Cl)ccc21 | 200 | 2000 | 15000 | – | –
Nc1cccc2c1nc(-c1ccc(P(=O)(O)O)o1)n2CC1CCCCCC1 | 3250 | 20000 | 100000 | – | –
CCc1cc(F)c(N)c2nc(-c3ccc(P(=O)(OCC(=O)OC(C)(C)C)OCC(=O)OC(C)(C)C)o3)n(CC(C)C)c12.Cl | – | – | – | – | 2
CC(C)Cn1c(-c2ccc(P(=O)(O)O)o2)nc2c(N)c(F)cc(CCC(C)(C)C)c21 | 210 | 1600 | 18000 | 28 | –
CC(C)Cn1c(-c2ccc(P(=O)(O)O)o2)nc2c(N)c(F)ccc21 | 100 | 2280 | 2400 | – | –
Nc1cccc2c1nc(-c1ccc(P(=O)(O)O)o1)n2Cc1ccc(-c2ccccc2)cc1 | 2500 | 20000 | 100000 | – | –
CC(C)Cn1c(-c2ccc(P(=O)(O)O)o2)nc2c(N)c(F)cc(Cl)c21 | 100 | 2000 | – | – | –
Nc1cccc2c1nc(-c1ccc(P(=O)(O)O)o1)n2CC1CCCCC1 | 2500 | 20000 | 100000 | – | –
CC(C)Cn1c(-c2ccc(P(=O)(O)O)o2)nc2c(N)c(Cl)cc(Cl)c21 | 450 | 2000 | 14000 | – | –
CCOC(=O)[C@H](C)NP(=O)(N[C@@H](C)C(=O)OCC)c1ccc(-c2nc3c(N)c(F)cc(CC)c3n2CC(C)C)o1 | – | – | – | – | 5
Cn1c(-c2ccc(P(=O)(O)O)o2)nc2c(N)cccc21 | 6000 | 20000 | 100000 | – | –
CC(C)Cn1c(-c2ccc(P(=O)(O)O)o2)nc2c(N)c(Br)c(Cl)c(Cl)c21 | 10000 | – | – | – | –
CCc1cc(F)c(N)c2nc(-c3ccc(P(=O)(OCCSC(C)=O)OCCSC(C)=O)o3)n(CC(C)C)c12 | – | – | – | – | 2
CC(C)Cn1c(-c2ccc(P(=O)(O)O)o2)nc2c(N)c(Br)cc(Br)c21 | 1000 | 2000 | 14000 | – | –
